Results from ChEMBL document CHEMBL6109056, “Disrupted target binding with acryloyl group as potential Bcr-Abl/C-Src dual kinase inhibitor optimization strategies with maintained antitumor activity” (Bioorg Med Chem Lett, 2025).

Experiments:
A549 [1] = experiment: Cytotoxicity against human A549 cells assessed as growth inhibition incubated for 72 hrs by MTT assay; type: functional, cell-based; conditions: A549, 72 h
[2] = Inhibition of C-Src (unknown origin) in presence of ATP; design: species or system Homo sapiens
K562 [3] = experiment: Cytotoxicity against human K562 cells assessed as growth inhibition incubated for 72 hrs by MTT assay; type: functional, cell-based; conditions: K562, 72 h
HCT-116 [4] = experiment: Cytotoxicity against human HCT-116 cells assessed as growth inhibition incubated for 72 hrs by MTT assay; type: functional, cell-based; conditions: HCT-116, 72 h
Bcr/Abl fusion protein = Bcr/Abl fusion protein (Homo sapiens, UniProt P00519); experiment: Inhibition of wild-type Bcr-Abl (unknown origin) in presence of ATP; type: protein assay
Sequence of Bcr/Abl fusion protein (P00519 whole entry, the tested form may be a part): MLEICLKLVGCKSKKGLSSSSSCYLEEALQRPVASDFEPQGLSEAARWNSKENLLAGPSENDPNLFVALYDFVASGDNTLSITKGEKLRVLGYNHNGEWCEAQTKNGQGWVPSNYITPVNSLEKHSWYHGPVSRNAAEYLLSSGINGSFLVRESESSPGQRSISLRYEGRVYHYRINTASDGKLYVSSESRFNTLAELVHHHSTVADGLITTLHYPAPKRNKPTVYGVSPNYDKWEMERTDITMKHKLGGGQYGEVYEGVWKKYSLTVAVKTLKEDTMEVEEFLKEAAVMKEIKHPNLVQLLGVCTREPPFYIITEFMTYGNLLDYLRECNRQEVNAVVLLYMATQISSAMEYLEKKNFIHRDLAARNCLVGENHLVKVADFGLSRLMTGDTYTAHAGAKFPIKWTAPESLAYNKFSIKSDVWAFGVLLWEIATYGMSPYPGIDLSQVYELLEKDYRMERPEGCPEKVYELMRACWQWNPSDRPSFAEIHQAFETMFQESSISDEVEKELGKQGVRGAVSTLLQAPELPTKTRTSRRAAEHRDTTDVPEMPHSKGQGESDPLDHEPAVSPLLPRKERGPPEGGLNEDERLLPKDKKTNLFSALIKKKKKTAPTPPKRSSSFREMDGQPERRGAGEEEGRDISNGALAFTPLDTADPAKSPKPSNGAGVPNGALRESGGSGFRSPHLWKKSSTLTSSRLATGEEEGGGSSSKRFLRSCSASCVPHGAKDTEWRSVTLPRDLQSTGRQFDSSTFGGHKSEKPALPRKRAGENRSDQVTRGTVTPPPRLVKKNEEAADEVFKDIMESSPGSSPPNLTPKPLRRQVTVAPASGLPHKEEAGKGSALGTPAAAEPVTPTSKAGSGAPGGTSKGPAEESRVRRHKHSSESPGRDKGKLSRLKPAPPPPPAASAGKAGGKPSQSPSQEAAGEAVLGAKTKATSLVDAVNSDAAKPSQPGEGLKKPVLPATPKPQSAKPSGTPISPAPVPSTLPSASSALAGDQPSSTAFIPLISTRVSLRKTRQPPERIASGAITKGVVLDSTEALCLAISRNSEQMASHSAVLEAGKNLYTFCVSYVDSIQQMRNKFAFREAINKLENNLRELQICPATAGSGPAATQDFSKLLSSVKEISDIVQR
Sequence of Bcr/Abl fusion protein (P11274 whole entry, further chain, the tested form may be a part): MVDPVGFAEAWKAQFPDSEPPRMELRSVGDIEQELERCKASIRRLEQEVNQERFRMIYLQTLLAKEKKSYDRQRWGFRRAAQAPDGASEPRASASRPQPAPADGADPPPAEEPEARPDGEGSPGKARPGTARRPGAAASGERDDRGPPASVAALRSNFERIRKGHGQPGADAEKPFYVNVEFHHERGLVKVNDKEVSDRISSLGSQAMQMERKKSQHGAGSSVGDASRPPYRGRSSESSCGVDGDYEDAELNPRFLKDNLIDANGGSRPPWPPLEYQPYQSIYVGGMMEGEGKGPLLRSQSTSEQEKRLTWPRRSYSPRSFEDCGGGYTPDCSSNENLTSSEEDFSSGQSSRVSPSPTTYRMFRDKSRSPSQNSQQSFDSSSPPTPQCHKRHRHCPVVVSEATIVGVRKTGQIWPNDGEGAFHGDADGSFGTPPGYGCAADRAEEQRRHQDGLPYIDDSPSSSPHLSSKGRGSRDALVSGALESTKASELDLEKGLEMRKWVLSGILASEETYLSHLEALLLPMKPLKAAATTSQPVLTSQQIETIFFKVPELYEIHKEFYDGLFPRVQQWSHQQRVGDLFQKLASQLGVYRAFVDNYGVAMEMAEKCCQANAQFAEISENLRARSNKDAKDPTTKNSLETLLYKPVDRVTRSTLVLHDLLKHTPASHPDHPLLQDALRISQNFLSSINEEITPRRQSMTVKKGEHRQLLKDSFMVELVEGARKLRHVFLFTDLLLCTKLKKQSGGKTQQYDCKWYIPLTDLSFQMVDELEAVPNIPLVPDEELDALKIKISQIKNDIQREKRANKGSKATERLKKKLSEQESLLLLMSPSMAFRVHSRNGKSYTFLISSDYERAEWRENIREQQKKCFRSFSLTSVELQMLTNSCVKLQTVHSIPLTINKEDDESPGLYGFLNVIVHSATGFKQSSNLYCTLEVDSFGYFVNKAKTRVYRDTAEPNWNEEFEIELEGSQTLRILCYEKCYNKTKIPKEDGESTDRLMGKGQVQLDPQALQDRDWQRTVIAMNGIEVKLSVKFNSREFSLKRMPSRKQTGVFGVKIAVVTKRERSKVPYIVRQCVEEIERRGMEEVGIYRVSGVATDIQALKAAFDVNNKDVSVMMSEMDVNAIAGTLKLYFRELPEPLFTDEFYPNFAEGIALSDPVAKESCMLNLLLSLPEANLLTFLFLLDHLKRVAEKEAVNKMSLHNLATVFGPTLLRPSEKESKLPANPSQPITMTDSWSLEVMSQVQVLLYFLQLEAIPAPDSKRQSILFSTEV

MCF7 [5] = experiment: Cytotoxicity against human MCF7 cells assessed as growth inhibition at 10 uM incubated for 72 hrs by MTT assay relative to control; type: functional
MCF7 [6] = experiment: Cytotoxicity against human MCF7 cells assessed as growth inhibition incubated for 72 hrs by MTT assay; type: functional, cell-based; conditions: MCF7, 72 h
[7] = molecular target: Bcr/Abl fusion protein (Homo sapiens) (UniProt P00519+P11274); experiment: Inhibition of wild-type Bcr-Abl (unknown origin) at 10 uM in presence of ATP relative to control; type: protein assay
Sequence of Bcr/Abl fusion protein (Homo sapiens) (P00519 whole entry, looked up, the tested form may be a part): as the sequence (P00519 whole entry, the tested form may be a part) above
Sequence of Bcr/Abl fusion protein (Homo sapiens) (P11274 whole entry, looked up, the tested form may be a part): as the sequence (P11274 whole entry, further chain, the tested form may be a part) above

Homo sapiens = organism: Homo sapiens; experiment: Inhibition of C-Src (unknown origin) at 10 uM in presence of ATP relative to control
A549 [8] = experiment: Cytotoxicity against human A549 cells assessed as growth inhibition at 10 uM incubated for 72 hrs by MTT assay relative to control; type: functional
K562 [9] = experiment: Cytotoxicity against human K562 cells assessed as growth inhibition at 10 uM incubated for 72 hrs by MTT assay relative to control; type: functional
HCT-116 [10] = experiment: Cytotoxicity against human HCT-116 cells assessed as growth inhibition at 10 uM incubated for 72 hrs by MTT assay relative to control; type: functional

SMILES	IC50 [2] [nM]	IC50 (Bcr/Abl fusion protein) [nM]	EC50 (A549 [1]) [nM]	EC50 (K562 [3]) [nM]	also measured
COc1cc(Nc2c(C#N)cnc3cc(OCCCN4CCN(C)CC4)c(OC)cc23)c(Cl)cc1Cl [BOSUTINIB]	0.14		970	690	EC50 (HCT-116 [4]): 3420 nM
COc1cc2ncc(C#N)c(Nc3ccc(Br)cc3Br)c2cc1OC	2440	5430			
C=CC(=O)N(c1cc(OC)ccc1Cl)c1c(C#N)cnc2cc(OCCCN3CCCCC3)c(OC)cc12	132	112	8900	9760	EC50 (MCF7 [6]): 9450 nM
COc1cc2ncc(C#N)c(Nc3ccccc3)c2cc1OC					inhibition [7]: 98.7%; inhibition (Homo sapiens): 96.5%
C=CC(=O)N(c1ccccc1)c1c(C#N)cnc2cc(OC)c(OC)cc12					inhibition [7]: 7.1%; inhibition (Homo sapiens): 9.5%
C=CC(=O)N(c1cc(OC)ccc1Cl)c1c(C#N)cnc2cc(OCCCN3CCN(C)CC3)c(OC)cc12	484	186		9830	inhibition at 10 µM (A549 [8]): 32%; inhibition at 10 µM (MCF7 [5]): 40%
COc1cc(Nc2c(C#N)cnc3cc(OC)c(OC)cc23)c(Cl)cc1Cl	0.77	0.76			
C=CC(=O)N(c1ccc(Br)cc1Br)c1c(C#N)cnc2cc(OC)c(OC)cc12	8520	> 10000			
COc1cc(N(C(C)=O)c2c(C#N)cnc3cc(OCCCN4CCCCC4)c(OC)cc23)c(Cl)cc1Cl	770	1100			inhibition at 10 µM (HCT-116 [10]): 34%; inhibition at 10 µM (K562 [9]): 31%; inhibition at 10 µM (A549 [8]): 28%; inhibition at 10 µM (MCF7 [5]): 34%
C=CC(=O)N(c1cc(OC)ccc1Cl)c1c(C#N)cnc2cc(OC)c(OC)cc12	1840	569			
C=CC(=O)N(c1ccc(Cl)cc1Cl)c1c(C#N)cnc2cc(OC)c(OC)cc12	2080	1330			

The next lines start with results.

IC50 [2] [nM]	IC50 (Bcr/Abl fusion protein) [nM]	SMILES	EC50 (A549 [1]) [nM]	EC50 (K562 [3]) [nM]	also measured
0.11	0.14	COc1cc(Nc2c(C#N)cnc3cc(OCCCN4CCCCC4)c(OC)cc23)c(Cl)cc1Cl	8560	7330	EC50 (HCT-116 [4]): 7990 nM
0.35	0.3	COc1ccc(Cl)c(Nc2c(C#N)cnc3cc(OCCCN4CCCCC4)c(OC)cc23)c1	7870	8070	inhibition at 10 µM (MCF7 [5]): 29%
0.33	0.23	COc1ccc(Cl)c(Nc2c(C#N)cnc3cc(OCCCN4CCOCC4)c(OC)cc23)c1	7150	1190	EC50 (MCF7 [6]): 9340 nM
0.89	0.64	COc1ccc(Cl)c(Nc2c(C#N)cnc3cc(OC)c(OC)cc23)c1			
169	214	C=CC(=O)N(c1cc(OC)c(Cl)cc1Cl)c1c(C#N)cnc2cc(OCCCN3CCCCC3)c(OC)cc12	5500	3190	EC50 (HCT-116 [4]): 6380 nM
0.27	0.42	COc1cc(Nc2c(C#N)cnc3cc(OCCCN4CCOCC4)c(OC)cc23)c(Cl)cc1Cl	7400	6430	EC50 (MCF7 [6]): 8670 nM
4.67	4.38	COc1cc2ncc(C#N)c(Nc3ccc(Cl)cc3Cl)c2cc1OC			
0.23	0.06	COc1ccc(Cl)c(Nc2c(C#N)cnc3cc(OCCCN4CCN(C)CC4)c(OC)cc23)c1	4510		EC50 (MCF7 [6]): 4490 nM; inhibition at 10 µM (K562 [9]): 46%
863	893	C=CC(=O)N(c1cc(OC)c(Cl)cc1Cl)c1c(C#N)cnc2cc(OC)c(OC)cc12			
101	56.2	C=CC(=O)N(c1cc(OC)c(Cl)cc1Cl)c1c(C#N)cnc2cc(OCCCN3CCN(C)CC3)c(OC)cc12	1440	1060	EC50 (HCT-116 [4]): 4860 nM
110	169	C=CC(=O)N(c1cc(OC)c(Cl)cc1Cl)c1c(C#N)cnc2cc(OCCCN3CCOCC3)c(OC)cc12	4170	6390	EC50 (MCF7 [6]): 7850 nM
207	193	C=CC(=O)N(c1cc(OC)ccc1Cl)c1c(C#N)cnc2cc(OCCCN3CCOCC3)c(OC)cc12			inhibition at 10 µM (K562 [9]): 40%; inhibition at 10 µM (A549 [8]): 31%; inhibition at 10 µM (MCF7 [5]): 25%
